Experimental data taken from ChEMBL document CHEMBL6177955, “Design, synthesis and biological evaluation of Golgi-targeting anion transporters as inducers of Golgiphagy and apoptosis in cancer cells” (Eur J Med Chem, 2025).
The source made the active and inactive calls. The rule behind the calls is not given here.

Columns and labels:
[1] = test system: Lipid bilayer; assay: Vesicular anionophoric activity in large unilamellar vesicle membrane derived from egg-yolk L-alpha-phosphatidylcholine assessed as induction of relative efflux of chloride ions measured up to 300 seconds by using chloride-selective electrode
[2] = test system: Lipid bilayer; assay: Vesicular anionophoric activity in large unilamellar vesicle membrane derived from egg-yolk L-alpha-phosphatidylcholine assessed as induction of relative efflux of chloride ions in presence of lithium (Li+) measured up to 300 seconds by using chloride-selective electrode; details: time <= 300.0 sec
[3] = test system: Lipid bilayer; assay: Vesicular anionophoric activity in large unilamellar vesicle membrane derived from egg-yolk L-alpha-phosphatidylcholine assessed as induction of relative efflux of chloride ions in presence of sodium (Na+) measured up to 300 seconds by using chloride-selective electrode; details: time <= 300.0 sec
[4] = test system: Lipid bilayer; assay: Vesicular anionophoric activity in large unilamellar vesicle membrane derived from egg-yolk L-alpha-phosphatidylcholine assessed as induction of relative efflux of chloride ions in presence of potassium (K+) measured up to 300 seconds by using chloride-selective electrode; details: time <= 300.0 sec
[5] = test system: Lipid bilayer; assay: Vesicular anionophoric activity in large unilamellar vesicle membrane derived from egg-yolk L-alpha-phosphatidylcholine assessed as induction of relative efflux of chloride ions in presence of rubidium (Rb+) measured up to 300 seconds by using chloride-selective electrode; details: time <= 300.0 sec
[6] = test system: Lipid bilayer; assay: Vesicular anionophoric activity in large unilamellar vesicle membrane derived from egg-yolk L-alpha-phosphatidylcholine assessed as induction of relative efflux of chloride ions in presence of cesium (Cs+) measured up to 300 seconds by using chloride-selective electrode; details: time <= 300.0 sec
[7] = test system: Lipid bilayer; assay: Vesicular anionophoric activity in Bulky nitrobenzene membrane assessed as induction of relative efflux of chloride ions measured up to 100 hrs by using chloride-selective electrode
[8] = test system: A2780; assay: Antiproliferative activity against human A2780 cells by MTT assay; format: functional, cell-based
[9] = test system: HepG2; assay: Antiproliferative activity against human HepG2 cells by MTT assay; format: functional, cell-based
[10] = test system: MCF7; assay: Antiproliferative activity against human MCF7 cells by MTT assay; format: functional, cell-based
[11] = test system: HT-29; assay: Antiproliferative activity against human HT-29 cells by MTT assay; format: functional, cell-based
[12] = test system: HCT-8; assay: Antiproliferative activity against human HCT-8 cells by MTT assay; format: functional, cell-based
[13] = test system: HepG2; assay: Disruption of homeostasis of chloride anions in golgi apparatus of human HepG2 cells assessed as increase in fluorescence intensity of 6-methoxy-1-(2-oxo-2-((4-sulfamoylphenyl)amino)ethyl)quinolin-1-ium Bromide at 50 uM measured after 12 hts by CLSM imaging analysis; format: functional, cell-based
[14] = test system: HepG2; assay: Suppression of Golgi structural and functional protein expression in human HepG2 cells assessed as decrease in GM130 protein expression at 5 to 20 uM measured after 48 hrs incubation by Western blot analysis; format: cell-based; details: dose 5-20 µM
[15] = test system: HepG2; assay: Suppression of Golgi structural and functional protein expression in human HepG2 cells assessed as decrease in GRASP55 protein expression at 5 to 20 uM measured after 48 hrs incubation by Western blot analysis; format: cell-based; details: dose 5-20 µM
[16] = test system: HepG2; assay: Induction of chloride ion influx in human HepG2 cells assessed as effect on lysosomal chloride anions at […] measured after 12 hrs incubation by chloride-sensitive dye MQAE-MP based CLSM imaging analysis; format: functional, cell-based
[17] = test system: HepG2; assay: Induction of apoptosis in human HepG2 cells assessed as viable cells at 5 uM measured after 24 hrs incubation by Propidium iodide/Annexin V-FITC analysis (reference value: 90.2%); format: functional; details: read-out: Activity
[18] = test system: HepG2; assay: Induction of apoptosis in human HepG2 cells assessed as early apoptotic cells at 5 uM measured after 24 hrs incubation by Propidium iodide/Annexin V-FITC analysis (reference value: 2.90%); format: functional
[19] = test system: HepG2; assay: Induction of apoptosis in human HepG2 cells assessed as late apoptotic cells at 5 uM measured after 24 hrs incubation by Propidium iodide/Annexin V-FITC analysis (reference value: 5.71%); format: functional
[20] = test system: HepG2; assay: Induction of apoptosis in human HepG2 cells assessed as necrotic cells at 5 uM measured after 24 hrs incubation by Propidium iodide/Annexin V-FITC analysis (reference value: 1.14%); format: functional
[21] = test system: HepG2; assay: Disruption of homeostasis of chloride anions in golgi apparatus of human HepG2 cells assessed as increase in fluorescence intensity of 6-methoxy-1-(2-oxo-2-((4-sulfamoylphenyl)amino)ethyl)quinolin-1-ium Bromide measured after 12 hts by CLSM imaging analysis; format: functional, cell-based
[22] = test system: HepG2; assay: Suppression of Golgi structural and functional protein expression in human HepG2 cells assessed as decrease in GM130 protein expression at 20 uM measured after 48 hrs incubation by Western blot analysis; format: cell-based
[23] = test system: HepG2; assay: Suppression of Golgi structural and functional protein expression in human HepG2 cells assessed as decrease in GRASP55 protein expression at 20 uM measured after 48 hrs incubation by Western blot analysis; format: cell-based

| Structure (SMILES) | EC50 [1] [mol%] | Activity [2] | Activity [3] | Activity [4] | Activity [5] | Activity [6] | Activity [7] | IC50 [8] [µM] | IC50 [9] [µM] | IC50 [10] [µM] | IC50 [11] [µM] | IC50 [12] [µM] | further results |
| --- | --- | --- | --- | --- | --- | --- | --- | --- | --- | --- | --- | --- | --- |
| Cc1ccc(Nc2c(NCCCCCC(=O)Nc3ccc(S(N)(=O)=O)cc3)c(=O)c2=O)cc1 | > 10 | Active | Active | Active | Active | Active | Active; Compound Exhibit Anion Transport Activity Most Probably Through Carrier Mechanism | > 50 | 36.7 | 33 | 47.4 | 32.2 | – |
| NS(=O)(=O)c1ccc(NC(=O)CCCCCNc2c(Nc3cc([N+](=O)[O-])cc([N+](=O)[O-])c3)c(=O)c2=O)cc1 | 3.08 | Active | Active | Active | Active | Active | Active; Compound Exhibit Anion Transport Activity Most Probably Through Carrier Mechanism | > 50 | > 50 | > 50 | > 50 | > 50 | – |
| N#Cc1ccc(Nc2c(NCCCCCC(=O)Nc3ccc(S(N)(=O)=O)cc3)c(=O)c2=O)cc1 | 4.57 | Active | Active | Active | Active | Active | Active; Compound Exhibit Anion Transport Activity Most Probably Through Carrier Mechanism | > 50 | 38.1 | 37.1 | 45.1 | 31.8 | – |
| NS(=O)(=O)c1ccc(NC(=O)CCCCCNc2c(Nc3cc(Cl)cc(Cl)c3)c(=O)c2=O)cc1 | 3.44 | Active | Active | Active | Active | Active | Active; Compound Exhibit Anion Transport Activity Most Probably Through Carrier Mechanism | > 50 | 20.6 | > 50 | 40.9 | 39.1 | – |
| NS(=O)(=O)c1ccc(NC(=O)CCCCCNc2c(Nc3ccc(C(F)(F)F)cc3)c(=O)c2=O)cc1 | 2.93 | Active | Active | Active | Active | Active | Active; Compound Exhibit Anion Transport Activity Most Probably Through Carrier Mechanism | 21.1 | 27.1 | > 50 | 24.7 | 19.2 | – |
| COc1ccc(Nc2c(NCCCCCC(=O)Nc3ccc(S(N)(=O)=O)cc3)c(=O)c2=O)cc1 | > 10 | Active | Active | Active | Active | Active | Active; Compound Exhibit Anion Transport Activity Most Probably Through Carrier Mechanism | > 50 | 41.9 | 39.7 | 49.5 | 44.7 | Activity [13]: inactive; Activity [14]: inactive; Activity [15]: Active |
| NS(=O)(=O)c1ccc(NC(=O)CCCCCNc2c(Nc3ccc(Br)cc3)c(=O)c2=O)cc1 | 3.06 | Active | Active | Active | Active | Active | Active; Compound Exhibit Anion Transport Activity Most Probably Through Carrier Mechanism | 48.8 | 35.9 | 15.5 | 18.7 | 41 | – |
| NS(=O)(=O)c1ccc(NC(=O)CCCCCNc2c(Nc3ccc(Cl)cc3)c(=O)c2=O)cc1 | 5.78 | Active | Active | Active | Active | Active | Active; Compound Exhibit Anion Transport Activity Most Probably Through Carrier Mechanism | > 50 | 31.9 | 23.6 | 33.8 | 25.6 | – |
| COc1ccc2c(ccc[n+]2CC(=O)Nc2ccc(S(N)(=O)=O)cc2)c1 | – | – | – | – | – | – | – | – | – | – | – | – | Activity [16]: Active |
| COc1cccc2c1C(=O)c1c(O)c3c(c(O)c1C2=O)C[C@@](O)(C(=O)CO)C[C@@H]3O[C@H]1C[C@H](N)[C@H](O)[C@H](C)O1.Cl [DOXORUBICIN HYDROCHLORIDE] | – | – | – | – | – | – | – | 1.03 | 0.57 | 0.32 | 1.22 | 1.21 | viability at 5 µM [17]: 58.5%; Activity [18]: 16.8%; Activity [19]: 20.7%; Activity [20]: 3.96% |
| NS(=O)(=O)c1ccc(NC(=O)CCCCCNc2c(Nc3ccccc3)c(=O)c2=O)cc1 | 9.35 | Active | Active | Active | Active | Active | Active; Compound Exhibit Anion Transport Activity Most Probably Through Carrier Mechanism | 46.9 | 26.7 | 28.5 | 29.6 | 22.7 | EC50 [21]: 31.1 µM; Activity [22]: Active; Activity [23]: Active |
| NS(=O)(=O)c1ccc(NC(=O)CCCCCNc2c(Nc3ccc([N+](=O)[O-])cc3)c(=O)c2=O)cc1 | 2.86 | Active | Active | Active | Active | Active | Active; Compound Exhibit Anion Transport Activity Most Probably Through Carrier Mechanism | > 50 | > 50 | > 50 | > 50 | > 50 | – |
| NS(=O)(=O)c1ccc(NC(=O)CCCCCNc2c(Nc3ccc(F)cc3)c(=O)c2=O)cc1 | 3.76 | Active | Active | Active | Active | Active | Active; Compound Exhibit Anion Transport Activity Most Probably Through Carrier Mechanism | > 50 | 33.6 | 30.1 | 42.1 | 36.5 | – |
